Patent US12098395B2, “Polypeptide with function of targeting recognition of immune cells and application thereof” (Keyangle Life Technology Co., Ltd., priority 2018, dated 2024)
No end group written: not given here. code X = not defined here

Legend:
[1] = system: mouse peritoneal macrophages; experiment: In vivo fluorescent labeling of macrophages in a mouse abdominal cavity; set-up: species or system Kunming mice; settings: for recognition of macrophages in vivo: conclusion from Table 1, mouse peritoneal macrophages; for fluorescent labeling of macrophages extracted from the mouse abdominal cavity: labeled in vivo by intraperitoneal injection, cells extracted after 4 hours, Nucblue double-stain
Experimental: Dilute 300 μL of 50 μM EK24 fluorescent probe solution with serum-free DMEM incomplete medium to obtain 1 mL of solution, then inject into the abdominal cavity of 5-8 weeks old Kunming mice. After 4 hours, inject 5 mL of 1×PBS and massage. After 10 minutes, sacrifice the mice by cervical vertebra dislocation. Cut the abdominal cavity skin of the mice, pierce the abdominal wall muscle by a syringe, and extract the fluid in the abdominal cavity of the mice. Centrifuge the extracted peritoneal fluid at 1000 rpm for 5 min, wash twice with 1×PBS. Add appropriate amount of cells to a 96-well plate and double-stain with a nuclear dye Nucblue (Invitrogen). Observe under fluorescence microscope (light source 10%, exposure 200 ms, gain 5) after the suspended cells were settled down at the bottom of the plate.
Table 1 lists probes, which contain the polypeptide fragments from the C-terminal fragments of Triokinases/FMN cyclases of different species and were prepared by a similar process as described in Examples 1 and 2, and in vivo imaging results of mouse peritoneal macrophages using these probes.

[2] = system: monocyte precursors from mouse bone marrow; experiment: Fluorescence labeling of mouse primary monocyte precursors at different incubation times; assay type: cell-based; settings: incubating only for 10 min
Experimental: Referring to Example 7, using the same treatment process, the monocyte precursors from mouse bone marrow were obtained. After culturing for 6 days, the cultured cells were labeled with […] fluorescent probe over different incubation times. Then the cells were observed under a fluorescence microscope (20×, light source 20%, exposure 200 ms, gain 5).
Nucblue was further used for nuclear staining. In each of FIGS. 18A, 18B, 18C, and 18D, i) is an image labeled with the […] fluorescent probe (shown in red in the original fluorescence color image), and ii) is an image obtained by nuclear staining with Nucblue (shown in blue in the original fluorescence color image), and iii) is a merged image of i) and ii).

[3] = system: cultured peritoneal macrophages and mesenteric digestive cells; experiment: Selective labeling of cultured peritoneal macrophages among cells released from enzyme-digested mesenterium; assay type: cell-based, Kunming mice; settings: peritoneal cells and trypsin-digested mesenteries cultured 3 days
Experimental: Take 5 to 8 week-old Kunming mice, inject intraperitoneally with 5 mL of serum-free DMEM incomplete medium. After 1 hour, sacrifice the mice by cervical vertebra dislocation. Make an incision on the skin of abdominal cavity, pierce the abdominal wall muscle using a syringe, and extract the fluid in the abdominal cavity of the mice. Wash twice with 1×PBS, collect peritoneal cells by centrifugation. Also take the mesenteries of the Kunming mice and purge twice with 1×PBS in centrifuge tubes. Incubate the obtained peritoneal cells and mesenteries in 0.25% trypsin solution and digest for 30 minutes. Enrich the cells by centrifugation, and then culture for 3 days in a 96-well plate using F12/DMEM culture solution containing 10% FBS and 1% streptomycin-penicillin. Referring to Example 5, label with the EK24 fluorescent probe and Nucblue. Then the cells were observed under a fluorescence microscope (20×, light source 10%, exposure 200 ms, gain 5).

[4] = system: macrophages on mouse abdominal wall; experiment: In vivo fluorescent labeling of macrophages on mouse abdominal wall with CD68 antibody co-staining; settings: in vivo injection, abdominal wall muscle removed
Experimental: Referring to Example 4, using the same drug injection process, inject EK24, and FITC anti-mouse CD68 antibody (Biolegend) which was diluted with PBS from 2 μL to 500 μL. Remove mouse abdominal wall muscle for Nucblue double-staining and then observing under a fluorescence microscope (20×, light source 50%, exposure 200 ms, gain 5).

[5] = system: bone marrow monocyte precursors of New Zealand White Rabbit; experiment: In vitro fluorescent labeling of primary monocyte precursors of New Zealand White Rabbit; assay type: cell-based
Text: With a similar process to Example 7, bone marrow monocyte precursors of New Zealand White Rabbit were taken and cultured, then labeled by using EK24 fluorescent probe and Nucblue. Then the cells were observed under a fluorescence microscope (20×, light source 10%, exposure 200 ms, gain 5).

[6] = system: primary macrophages from rat peritoneal cavity; experiment: In vitro fluorescent labeling of primary macrophages from rat peritoneal cavity; assay type: cell-based, SD rats; settings: cultured more than 2 days
Experimental: With the same process as in Example 5, extract cells from the abdominal cavity of 5 to 8 weeks old SD rats using 20 mL serum-free DMEM incomplete medium and culture the cells in a 96-well plate. After culturing for more than 2 days, until the cells attached the bottom firmly, a well was selected and added with EK24 fluorescent probe for incubation. Then the cells were observed under a fluorescence microscope (20×, light source 10%, exposure 200 ms, gain 5).

[7] = system: mouse macrophage cell line RAW264.7; experiment: In vitro fluorescence labeled staining of a mouse macrophage cell line; assay type: cell-based; settings: 10 μM probe, 1 h incubation
Experimental: Culture the mouse macrophage cell line RAW264.7 in a 96-well plate, wash the wells once with 1×PBS buffer or a serum-free DMEM incomplete medium, remove the washing liquid, add EK24 solution of 10 μM which had been diluted with 100 μL of serum-free DMEM incomplete medium, and incubate in a cell culture incubator for 1 h. After that, wash the wells twice with 1×PBS buffer or the serum-free DMEM incomplete medium. Then, add DMEM complete medium containing 10% FBS and 1% streptomycin-penicillin, and double-stain the cells using nuclear dye Nucblue, and observe under EVOS® FL Auto fluorescence microscope (Life Technologies, light source 10%, exposure 200 ms, gain 5).

[8] = system: cultured macrophages isolated from mouse peritoneal cavity; experiment: In vitro fluorescent labeling of cultured macrophages isolated from mouse peritoneal cavity, co-staining with F4/80 antibody; assay type: cell-based; settings: 10 μM EK24 premixed with F4/80 antibody, 1 h at 37° C.
Experimental: Inject 5 mL of serum-free DMEM incomplete medium into the abdominal cavity of 5 to 8 weeks old mice, massage the abdominal cavity gently for 10 min, and sacrifice the mice by cervical vertebra dislocation. Extract the fluid from the abdominal cavity gently with a syringe, inject into a 5 mL centrifuge tube and centrifuge at 1000 rpm for 5 min, remove the supernatant, and resuspend the collected ex-vivo cells in DMEM/F12 medium containing 10% FBS, then add into a 96-well plate for culture. Generally, if cells are taken intraperitoneally for in vitro culture, macrophages would tend to adhere to bottom of the well, and other cells would be washed off. The cells were cultured for more than 2 days until the cells attached the bottom firmly. At this time, the cells remaining in the wells were basically macrophages. Select two wells, one as a control and the other as an experimental well. The cells of the control were nuclear stained with Nucblue. The experimental well was added with a premix of AlexaFluor®488 anti-mouse F4/80 antibody (Biolegend) and EK24 fluorescent probe, and then incubated for 1 h at 37° C. The premix contained 10 μM of EK24 solution and 2 μL of Alexa Fluor®488 anti-mouse F4/80 antibody diluted with 100 μL of serum-free DMEM incomplete medium. […] The cells were observed under a fluorescence microscope (20×objective lens, light source 10%, exposure 200 ms, gain 5).

[9] = system: monocyte precursors from rat bone marrow; experiment: In vitro fluorescent labeling of rat primary monocyte precursors; assay type: cell-based
Text: With a similar process to Example 7, mononuclear cell precursors from rat femoral bone marrow were taken and cultured, and then labeled by using EK24 fluorescent probe and Nucblue. Then the cells were observed under a fluorescence microscope (20×, light source 10%, exposure 200 ms, gain 5).

Substance	recognition of macrophages in vivo [1]	fluorescent labeling of macrophages extracted from the mouse abdominal cavity [1]	also measured
LQPDPGAVAAAAVLRAVLEGLQG-Y (LQPDPGAVAAAAVLRAVLEGLQGY; also: C-terminal reporter Y, nature not defined) [LK24, Chicken Triokinase/FMN cyclase C-terminal peptide probe, Y = reporter or cysteine/lysine + reporter]	can effectively recognize macrophages in vivo	can be labeled	–
X-DQPDPGAVAAAAILRAILEVLQSQGA ({code X}-DQPDPGAVAAAAILRAILEVLQSQGA; reading uncertain; also: N-terminal reporter X, nature not defined) [b-KA27, Pig and cattle Triokinase/FMN cyclase C-terminal peptide probe, X = reporter or cysteine/lysine + reporter]	can effectively recognize macrophages in vivo	can be labeled	–
LEQPDPGAVAAAAILRAILE-Y (LEQPDPGAVAAAAILRAILEY; also: C-terminal reporter Y, nature not defined) [LEK21, Human Triokinase/FMN cyclase C-terminal peptide probe, Y = reporter or cysteine/lysine + reporter]	can effectively recognize macrophages in vivo	can be labeled	–
X-EDQPDPGAVAAAAILRAILEVLQS ({code X}-EDQPDPGAVAAAAILRAILEVLQS; reading uncertain; also: N-terminal reporter X, nature not defined, printed as X-EDQPDPGAVAAAAILRAILEVLQS) [KS24, Human Triokinase/FMN cyclase C-terminal peptide probe, X = reporter or cysteine/lysine + reporter (rhodamine or FITC)]	can effectively recognize macrophages in vivo	can be labeled	fluorescence detection with microscope [2]: can be even detected
X-TKNMEAGAGRASYISSARLEQPDPGAVAAAAILRAILEVLQS ({code X}-TKNMEAGAGRASYISSARLEQPDPGAVAAAAILRAILEVLQS; reading uncertain; also: N-terminal reporter X, nature not defined) [TS42, Human Triokinase/FMN cyclase C-terminal peptide probe, X = reporter or cysteine/lysine + reporter]	can effectively recognize macrophages in vivo	can be labeled	–
X-DQPDPGAVAAAAIFRAILEVLQTKAA ({code X}-DQPDPGAVAAAAIFRAILEVLQTKAA; reading uncertain; also: N-terminal reporter X, nature not defined) [r-KA27, Rat Triokinase/FMN cyclase C-terminal peptide probe, X = reporter or cysteine/lysine + reporter]	can effectively recognize macrophages in vivo	can be labeled	–
X-KNMEAGAGRASYISSARLEQPDPGAVAAAAILRAIL ({code X}-KNMEAGAGRASYISSARLEQPDPGAVAAAAILRAIL; reading uncertain; also: N-terminal reporter X, nature not defined) [KnNL36, Human Triokinase/FMN cyclase C-terminal peptide probe, X = reporter or cysteine/lysine + reporter]	can effectively recognize macrophages in vivo	can be labeled	–
EQPDPGAVAAAAILRAILEVLQS-Y (not fully specified (C-terminus)) [EK24, Human/rhesus Triokinase/FMN cyclase C-terminal peptide; Y is lysine plus rhodamine fluorescent labeling group on the lysine side chain]	can effectively recognize macrophages in vivo	can be labeled	staining of macrophages in mixed culture [3]: only stains macrophages; staining of non-macrophages in mixed culture [3]: not stain non-macrophages; labeling of macrophages on mouse abdominal wall [4]: can be labeled; labeling of other cells of mouse abdominal wall [4]: cannot be labeled; labeling of monocyte precursors from New Zealand White Rabbit bone marrow mesenchyme [5]: capable of labeling; labeling of in vitro cultured primary macrophages from rat peritoneal cavity [6]: can effectively label; fluorescent labeling of RAW264.7 cells [7]: can be labeled; co-localization of probe label with F4/80 antibody label [8]: co-localized on the same cells; labeling of monocyte precursors from rat bone marrow mesenchyme [9]: capable of labeling
X-DQPDPGAVAAAAILRTILEVLQSQGV ({code X}-DQPDPGAVAAAAILRTILEVLQSQGV; reading uncertain; also: N-terminal reporter X, nature not defined) [d-KV27, Dog Triokinase/FMN cyclase C-terminal peptide probe, X = reporter or cysteine/lysine + reporter]	can effectively recognize macrophages in vivo	can be labeled	–
